In BindingDB's records for doi:10.3109/14756366.2011.566221 (Instituto Politécnico Nacional, 2011) one finds Ki data, which are given here for six molecules.

pKi: −log10 of the molar value.

Common to all, as to assay: LDH Activity Assay
Common to all, as to conditions: pH 7.4

The target of assay [1] is L-lactate dehydrogenase C chain (Mus musculus, UniProt P00342). As to the method: (§1) Lactate dehydrogenase activity was determined by recording the absorbance change at 340 nm produced by the oxidation of NADH. Assays were performed at 37°C. The reagent mixture contained 0.115 mM NADH, 50 mM sodium phosphate buffer, pH 7.4, sodium pyruvate (0.31 mM for LDH-C4 and LDH-B4 and 1.25 mM for LDH-A4) and the enzyme preparation, diluted with phosphate buffer, pH 7.4, to provide a ΔE340 of 0.06-0.07 per minute when the activity was assayed in a 1-cm light path. For determination of dissociation constants, the isozymes, the inhibitors (oxamate or oxamate derivatives) and the coenzyme were incubated with the buffer used in the assay for 10 min at 37°C before adding the substrate.

In assay [2] the target is L-lactate dehydrogenase B chain (Mus musculus, UniProt P16125). As to the method: as §1
Assay [3] concerns the target L-lactate dehydrogenase A chain (Mus musculus, UniProt P06151). As to the method: as §1

Chain of L-lactate dehydrogenase B chain (P16125 whole entry): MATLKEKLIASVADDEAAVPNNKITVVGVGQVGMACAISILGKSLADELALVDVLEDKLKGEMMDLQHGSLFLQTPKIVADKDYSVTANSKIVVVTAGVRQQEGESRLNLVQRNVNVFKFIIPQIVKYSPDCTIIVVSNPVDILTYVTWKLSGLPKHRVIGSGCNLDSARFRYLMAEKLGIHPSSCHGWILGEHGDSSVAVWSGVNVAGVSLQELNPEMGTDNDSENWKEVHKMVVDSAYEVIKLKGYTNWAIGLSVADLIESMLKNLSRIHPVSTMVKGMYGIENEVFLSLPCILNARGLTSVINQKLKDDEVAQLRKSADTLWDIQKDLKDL
Chain of L-lactate dehydrogenase C chain (P00342 whole entry): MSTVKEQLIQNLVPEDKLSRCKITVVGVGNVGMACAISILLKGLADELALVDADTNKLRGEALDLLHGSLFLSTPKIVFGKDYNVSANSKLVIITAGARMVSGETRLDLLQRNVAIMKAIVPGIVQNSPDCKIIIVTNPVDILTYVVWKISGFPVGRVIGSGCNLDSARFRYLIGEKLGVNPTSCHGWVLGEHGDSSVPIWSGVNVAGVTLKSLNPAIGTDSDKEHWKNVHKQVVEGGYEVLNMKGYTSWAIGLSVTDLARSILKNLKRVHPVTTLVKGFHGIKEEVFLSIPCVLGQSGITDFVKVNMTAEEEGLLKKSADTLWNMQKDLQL

Take `CCNC(=O)C(=O)O` [N-Ethyl oxamate]: the pKi (commonly the negative decadic logarithm of the Ki, by convention in mol/L) in assay [1] was 5.70; in assay [2] it was 4.46; in assay [3] it was 3.85.

Regarding `CCCNC(=O)C(=O)O` [N-Propyl oxamate], the pKi in assay [1] was 4.92; in assay [2], 3.05; in assay [3] it was 2.76.

For the molecule `NC(=O)C(=O)O` [carbamoylformic acid], the pKi is 4.52 in assay [1], 4.22 in assay [2] and 4.10 in assay [3].

`CCCCNC(=O)C(=O)O` [N-Butyl oxamate]: the pKi was 3.12 in assay [1], 2.15 in assay [2] and 2.04 in assay [3].

Take `CC(C)CNC(=O)C(=O)O` [N-Isobutyl oxamate]: the values for the pKi in assay [1], in assay [2] and in assay [3] were 2.70, 2.15 and 2.22, respectively.

As to `CCC(C)NC(=O)C(=O)O` (stereo not drawn) [N-sec-Butyl oxamate], the negative-log Ki (pKi) is 3.40 in assay [1], 1.84 in assay [2] and 1.90 in assay [3].
